As a reminder, the fraction unbound is free concentration divided by total concentration. High values mean weak binding, low ones extensive binding.

The structures appear in SMILES notation.

Our source for the fraction unbound values is paper PMC10223284, “Category-Based Toxicokinetic Evaluations of Data-Poor Per- and Polyfluoroalkyl Substances (PFAS) using Gas Chromatography Coupled with Mass Spectrometry” (Toxics, 2023).

A short description of the data set: in vitro. To be noted: both, human, plasma.
The mark [1] stands for this setting: Fraction Unbound (fu), Run-specific Avg, average of one UC run.
The mark [2] stands for this setting: Fraction Unbound (fu), individual replicates A, B, C of the UC run named in c8.
Setting [3] is: Mean Fu, mean fraction unbound in human plasma over all UC replicates/runs.
The mark [4] stands for this setting: Mean fu, fraction unbound in human plasma, ultracentrifugation, some values based on eLOQ.

Consider `OCC(F)(F)C(F)(F)C(F)(F)C(F)(F)C(F)(F)C(F)(F)C(F)(F)C(F)(F)CO` [1H,1H,10H,10H-Perfluorodecane-1,10-diol], for which the fraction unbound stood at 0.84 under setting [1]; 0.00495 (Fraction Unbound (fu), Run-specific Avg, average of one UC run (run date in line above)); 0.83 under setting [2]; 0.00438 (Fraction Unbound (fu), replicates A, B, C, single replicate of one UC run (aqueous fraction / Time 5 hr)); 0.841 under setting [3]; 0.00469 (Mean Fu, mean fraction unbound over all replicates and runs, UC assay, human plasma). Also, the fraction unbound under setting [4] turned out to be 0.0047.

Consider `OCCC(F)(F)C(F)(F)C(F)(F)C(F)(F)F` [4:2 Fluorotelomer alcohol], for which the fraction unbound runs as follows: under setting [1], 0.17; under setting [2], 0.206; under setting [4], 0.168.

Regarding `NC(=O)C(F)(F)C(F)(F)C(F)(F)F` [Heptafluorobutyramide], the fraction unbound stood at 0.6 under setting [1]; 0.667 (Fraction Unbound (fu), replicate A, individual replicate A of the UC run dated in c8); 0.57 (Fraction Unbound (fu), replicate B, individual replicate B of the UC run dated in c8); 0.565 (Fraction Unbound (fu), replicate C, individual replicate C of the UC run dated in c8); 0.603 (Mean Fu (fraction unbound), mean over all UC runs and replicates, human plasma); 0.603 under setting [3]. This compound also showed a fraction unbound under setting [4] of 0.603 and a fraction unbound (Mean fu, fraction unbound in human plasma, used for IVIVE) of 0.603.
